The results in this text go back to US20250281596A1, “IONIZABLE CATIONIC COMPOUND” (priority 2021, published 2025).

Tested on in the first data set: not listed separately
The data set is described as follows: physchem. In kind it is physicochemical. The following applies: saRNA-LNP with the lipid; TNS, pH 4 to 9.5, 25° C.; read-out: Apparent pKa. How it is done: In a black 96-well plate, solutions of saRNA-LNP (final assay concentration 2 μg/mL total RNA) in a series of buffers ranging from pH 4 to 9.5 were prepared. Buffers between pH 4 to 7.6 were prepared from disodium phosphate and citric acid. Buffers from 7.8 to 9.5 were prepared by titrating tris buffer with 10 N sodium hydroxide. To each well was added 6-(p-Toluidino)-2-naphthalenesulfonic acid sodium salt (TNS) in water to a final assay concentration of 6 μM. The fluorescence was read on a plate reader at 25° C. with an excitation setting of 321 nm and an emission setting of 445 nm. The intensity values were plotted as a function of pH using GraphPad Prism and were fit with a sigmoidal dose response curve. The apparent pKa was determined as the EC50 of this curve where half of the ionizable amines are expected to be protonated (see FIG. 1).
In general, pKa refers to the pH at which an ionisable group is half protonated. Turning to `CCCCCCCCCC(CCCCCCCCC(=O)OCC(CCCC)CCCCCC)OC(=O)CCC1CCN(C)CC1` (stereo not drawn) [SL15], the pKa is 7.13.
Same read-out and setting: under `CCCCCCCCCC(CCCCCCCCC(=O)OCC(CCCC)CCCCCC)OC(=O)CC1CCN(C)CC1` (stereo not drawn) [SL14] stands 6.63.

The next data set relates to BHK-21 cells. As to the kind of experiment: In vitro potency: transfection of BHK-21 cells, 96-well imaging (Cytation 5). In kind it is cell-based. Conditions: LNPs encapsulating saRNA expressing H5 and N1, FIG. 3. As to the method:
For LNPs prepared with SL16, SL17, SL18, and SL21, a similar assay was performed in a 96-well plate using BHK-21 cells and analysed using a Cytation 5 Cell Imaging Multimode Reader (Agilent). The results of this assay were analysed in the same way as described for the flow cytometry assay, except only an H5-antibody was used for detection. In vitro transfection potency was determined for LNPs containing lipids SL16, SL17, SL18, and SL21. […] SL16 LNP, SL17 LNP, and SL18 LNP were formulated using a flow-rate ratio of 2:1. SL17 LNP2, SL18 LNP2, and SL21 were formulated using a flow-rate ratio of 3:1 (FIG. 3).
`CCCCCCCCCC(CCCCCCCCC(=O)OCC(CCCC)CCCCCC)OC(=O)CCC1CCN(CCCO)CC1` (stereo not drawn) [SL18]: the “Ability to transfect cells (H5-antibody detection)” value was “able to transfect BHK-21 cells in vitro”.
Still for that read-out and setting: the value for `CCCCCCCCCC(CCCCCCCCC(=O)OCC(CCCC)CCCCCC)OC(=O)C1CCN(CCCO)CC1` (stereo not drawn) [SL16] was “able to transfect BHK-21 cells in vitro”; that for `CCCCCCCCCC(CCCCCCCCC(=O)OCC(CCCC)CCCCCC)OC(=O)CC1CCN(CCCO)CC1` (stereo not drawn) [SL17] was “able to transfect BHK-21 cells in vitro”; that for `CCCCCCCCCC(CCCCCCCCOC(=O)CC(CCCC)CCCCCC)OC(=O)CC1CCN(CCCO)CC1` (stereo not drawn) [SL21] was “able to transfect BHK-21 cells in vitro”.
